In patent US20200376007A1, “THERAPEUTIC COMPOUNDS AND METHODS OF USE THEREOF” (REGENTS OF THE UNIVERSITY OF MINNESOTA, priority 2019, published 2020):

Target: T1, human TGR5 receptor (Homo sapiens, UniProt Q8TDU6)
T1 construct: expressed in transfected cells
T1 sequence (Q8TDU6 1-330): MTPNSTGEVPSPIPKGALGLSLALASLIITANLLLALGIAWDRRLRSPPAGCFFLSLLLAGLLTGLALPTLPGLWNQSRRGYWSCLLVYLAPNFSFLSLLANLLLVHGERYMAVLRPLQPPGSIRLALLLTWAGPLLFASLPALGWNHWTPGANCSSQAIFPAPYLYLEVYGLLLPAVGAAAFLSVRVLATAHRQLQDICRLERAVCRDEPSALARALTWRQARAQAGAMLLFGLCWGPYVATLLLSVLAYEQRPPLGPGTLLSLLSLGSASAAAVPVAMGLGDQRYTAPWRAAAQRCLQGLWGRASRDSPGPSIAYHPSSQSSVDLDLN
Assay: TGR5 cAMP assay
Format: cell-based
Settings: TGR5 agonist activity; cAMP production in a recombinant cell line expressing human TGR5 receptor
Protocol: TGR5 agonist activity was evaluated by assaying cAMP production in a recombinant cell line expressing human TGR5 receptor.

SMILES	EC50 [nM]
COCCOCCNC(=O)CC[C@@H](C)[C@H]1CC[C@H]2[C@@H]3[C@H](OC)C[C@@H]4C[C@H](O)CC[C@]4(C)[C@H]3CC[C@]12C [Example 4, (R)-4-((3R,5S,7R,8R,9S,10S,13R,14S,17R)-3-hydroxy-7-methoxy-10,13-dimethylhexadecahydro-1H-cyclopenta[a]phenanthren-17-yl)-N-(2-(2-methoxyethoxy)ethyl)pentanamide]	49.5
CO[C@@H]1C[C@@H]2C[C@H](O)CC[C@]2(C)[C@H]2CC[C@]3(C)[C@@H]([C@H](C)CCC(=O)NC[C@H](O)[C@@H](O)[C@H](O)[C@H](O)CO)CC[C@H]3[C@H]12 [Example 6, (R)-4-((3R,5S,7R,8R,9S,10S,13R,14S,17R)-3-hydroxy-7-methoxy-10,13-dimethylhexadecahydro-1H-cyclopenta[a]phenanthren-17-yl)-N-((2S,3R,4R,5R)-2,3,4,5,6-pentahydroxyhexyl)pentanamide]	27.7
COCc1nnc(CC[C@@H](C)[C@H]2CC[C@H]3[C@@H]4[C@H](OC)C[C@@H]5C[C@H](O)CC[C@]5(C)[C@H]4CC[C@]23C)o1 [Example 5, (3R,5S,7R,8R,9S,10S,13R,14S,17R)-7-methoxy-17-((R)-4-(5-(methoxymethyl)-1,3,4-oxadiazol-2-yl)butan-2-yl)-10,13-dimethylhexadecahydro-1-cyclopenta[a]phenanthren-3-ol]	22.6
CO[C@@H]1C[C@@H]2C[C@H](O)CC[C@]2(C)[C@H]2CC[C@]3(C)[C@@H]([C@H](C)CCC(=O)O)CC[C@H]3[C@H]12 [Example 3, (R)-4-((3R,5S,7R,8R,9S,10S,13R,14S,17R)-3-hydroxy-7-methoxy-10,13-dimethylhexadecahydro-1H-cyclopenta[a]phenanthren-17-yl)pentanoic acid]	74.9
CO[C@@H]1C[C@@H]2C[C@H](O)CC[C@]2(C)[C@H]2CC[C@]3(C)[C@@H]([C@H](C)CCC(=O)N(C)C[C@H](O)[C@@H](O)[C@H](O)[C@H](O)CO)CC[C@H]3[C@H]12 [Example 7, (R)-4-((3R,5S,7R,8R,9S,10S,13R,14S,17R)-3-hydroxy-7-methoxy-10,13-dimethylhexadecahydro-1H-cyclopenta[a]phenanthren-17-yl)-N-methyl-N-((2S,3R,4R,5R)-2,3,4,5,6-pentahydroxyhexyl)pentanamide]	60.1
